Data published in publication PMC7146288, “Microwave Assisted Synthesis of 4-Phenylquinazolin-2(1H)-one Derivatives that Inhibit Vasopressor Tonus in Rat Thoracic Aorta” (Molecules, 2020).
Entries after “also recorded” stand apart in the source; their conditions may differ.

Legend:
[1] = system: rat thoracic aorta rings, endothelium-intact (E+); assay: Vascular reactivity: vasorelaxation in endothelium-intact (E+) aortic rings pre-contracted with Phe 1 µM; parameters: species or system Male Wistar normotensive rats (Rattus norvegicus); conditions: for IC50: Rattus norvegicus, rings pre-contracted with Phe 1 µM, cumulative 1-30 µM, mean ± SEM, read-out: IC50 vasorelaxation response in endothelium-intact (E+) aorta arterial vessels; for relaxation at the highest concentration: 30 μM, endothelium-intact aorta rings pre-contracted with Phe 1 µM
Protocol: (§1) All compounds were dissolved with DMSO 100% to obtain a stock solution of 10 mM. In all experiments, the stock solution was employed to obtain a final concentration diluted in Krebs Henseleit solution (vascular reactivity assay) and DMEM supplemented with 10% FBS (cytotoxicity assay).
Male Wistar normotensive rats (Rattus norvegicus) weighing between 200 and 300 grams were supplied by the Central Animal Facility of Fluminense Federal University (NAL-UFF) (Rio de Janeiro, Brazil). The animals were kept in standard environmental conditions of temperature (22 ± 1 °C) and 12 h light/dark cycle, with free access to food (Purina, Brazil) and water. All experiments were conducted in accordance to the guidelines established by National Council for Animal Experimentation Control (CONCEA, Brazil). This study was approved by the Ethics Committee in the Use of Animals of the Fluminense Federal University (CEUA-UFF), certificate under protocol number: 795/2017.
(§2) Animals were anesthetized by isoflurane (1% mg/kg) inhalation and, after the loss of motor control, rats were euthanized by cervical dislocation. Subsequently, the thoracic aorta was dissected and cleaned of connective tissue to obtain rings 4 mm in length that were suspended in a 15 mL organ bath (Panlab four chamber organ bath, AD-Instruments, Sydney, Australia). Tissues were kept in Krebs Henseleit solution at 37 °C with the following composition (mM): NaCl 120; KCl 5.0; MgCl2 1.1; CaCl2 2.5; NaH2PO4 1.2; N-[2-hydroxyethyl] piperazine-N’-[2-ethane-sulfonic acid] (HEPES) 10; NaHCO3 15; and glucose 11, bubbled constantly with a gas mixture of 95% O2 and 5% CO2 (pH 7.4). Each arterial segment was suspended between two steel hooks connected to an isometric transducer to measure tension through a data acquisition system (PowerLab 8 and LabChart Pro, AD-Instruments, Australia). […] Functional endothelial integrity was assessed by the ability of 10 µM ACh to induce ≥70% relaxation in vessels pre-contracted with 1 µM Phe.
Values are expressed as mean ± standard error of mean (SEM). A P-value less than 0.05 was termed statistically significant. The IC50 values (defined as the concentration of the test compound that reduced 50% of the maximal contraction) were obtained by actual concentration-response curve fitting using GraphPad Prism 6.0 software (GraphPad Software, San Diego, CA). Statistical significance was determined using Bonferroni´s multiple comparison for vascular reactivity experiments and using Turkey´s multiple comparison for cytotoxicity evaluation following two-way analysis of variance (ANOVA).
Figure 3 Concentration-response curves for compounds 2a–f and control (vehicle: DMSO) in intact endothelium aortic rings pre-contracted with Phe 1 µM. Cumulative concentrations (1 µM, 3 µM, 10 µM and 30 µM) were added to the Phe contraction plateau. DMSO was employed at the same volume used to dissolve the compound stock solution (maximum final concentration at 0.3%). All data are expressed as mean ± standard error of the mean (SEM) (n = 4–5). (* P < 0.05; *** P < 0.001; **** P < 0.0001 compound vs. control).

[2] = MTT cell viability (cytotoxicity) assay; format: cell-based, African Green monkey (Cercopithecus aethiops); conditions: African green monkey (Cercopithecus aethiops), VERO kidney cells, 48 h exposure, % of vehicle control, read-out: percentage of cell viability (living cells)
Protocol: as §1
(§3) A 3-[4,5-dimehyl-2-thiazolyl]-2,5-diphenyl-2H-tetrazoliumbromide (MTT) assay was employed to assess the general cytotoxicity for 4-phenylquinazolin-2(1H)-one derivatives. […]
(§4) The MTT cell viability assay investigates the number of viable cells by measuring the mitochondrial-dependent reduction of water-soluble tetrazolium into an insoluble formazan product. The absorbance obtained is directly proportional to the activity of functional mitochondria and represents the number of viable cells. […] Absorbance was measured with a plate reader (SpectraMax 190, CA, USA) at a wavelength of 550 nm and expressed as a percentage of the control (vehicle).
(§5) Figure 5 Cell viability assessed by the MTT method on the VERO cell line after 48 h of exposure to the compounds. […] All data are expressed as mean ± standard error of the mean (SEM) (n = 22–25). […]

[3] = system: VERO cells; assay: MTT cell viability (cytotoxicity) assay; format: cell-based, African Green monkey (Cercopithecus aethiops); conditions: 30 µM, 48 h exposure
Protocol: as §1, §3, §4, §5

[4] = system: rat thoracic aorta rings, endothelium-denuded (E−); assay: Vascular reactivity: vasorelaxation in endothelium-denuded (E−) aortic rings pre-contracted with Phe 1 µM; parameters: species or system Male Wistar normotensive rats (Rattus norvegicus); conditions: endothelium-denuded rings pre-contracted with Phe 1 µM; cumulative up to 30 µM
Protocol: A representative record of cumulative concentrations of compound 2f (1 μM, 3 μM, 10 μM and 30 μM) on aortic rings endothelium-intact and endothelium-denuded pre-contracted with Phe 1 μM are shown in Figure 4. Phe induced a steady tone in both preparations that were greater in endothelium denuded rings.
as §2, with “7.4).” for “7.4). Each arterial segment was suspended between two steel hooks connected to an isometric transducer to measure tension through a data acquisition system (PowerLab 8 and LabChart Pro, AD-Instruments, Australia).”
Figure 4 Concentration-response curves of compound 2f in endothelium-intact (E+) and endothelium-denuded (E−) aortic rings pre-contracted with Phe 1 µM. […] All data are expressed as mean ± standard error of the mean (SEM) (n = 4). […]

SMILES	IC50 [1]	viability at 48 h, 30 µM [2]	cytotoxicity according to ISO 10993: 5 (viability below 70% = cytotoxic) [3]	relaxation at the highest concentration [1]	vasorelaxation in the absence of the endothelium [4]
O=c1nc(-c2ccccc2)c2ccccc2[nH]1 [Compound 2a]	39.7 ± 6.77 µM				
O=c1nc(-c2ccccc2)c2cc([N+](=O)[O-])ccc2[nH]1 [Compound 2b]	16.4 ± 3.5 µM	69%	cytotoxic; also recorded: induced cytotoxicity		
O=c1nc(-c2ccccc2F)c2cc(Cl)ccc2[nH]1 [Compound 2d]	26.5 ± 8.98 µM				
O=c1nc(-c2ccccc2)c2cc(Br)ccc2[nH]1 [Compound 2e]	4.94 ± 1.21 µM			around 90%	

The next compounds have a lower IC50 [1] than those just listed; values first:

IC50 [1]	SMILES	viability at 48 h, 30 µM [2]	cytotoxicity according to ISO 10993: 5 (viability below 70% = cytotoxic) [3]	relaxation at the highest concentration [1]	vasorelaxation in the absence of the endothelium [4]
4.31 ± 0.9 µM	Cc1ccccc1-c1nc(=O)[nH]c2ccc(Cl)cc12 [Compound 2c]			around 90%	
3.41 ± 0.65 µM	Cn1c(=O)nc(-c2ccccc2)c2cc(Cl)ccc21 [Compound 2f]			around 90%	abolished
